Test results from the supplement of paper PMC7455731.

Test: collision cross section (DTIM-MS, N2); higher = larger ion
Description: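 Collision cross section (CCS) of drug and natural-product chemical standards (validation set 2, measured in this paper). Three independent measurements were made across 2 months; the value taken is their mean (avg_ccs), for the ion adduct given.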

Row | SMILES | collision cross section (ion adduct: [M+H]+) [Å²] | collision cross section (ion adduct: [M-H]-) [Å²]
1 | C=CCc1cc(OC)c(OC)c(OC)c1 [Elemicin] | 144.76 | 
2 | Cc1cc(O)c2c(c1)C(=O)c1cc(O)cc(O)c1C2=O [Emodin] | 156.69 | 155.06
3 | CCOc1cc(NC(C)=O)ccc1C(=O)OC [Ethopabate] | 151.13 | 158.16
4 | CCOC(=O)c1ccc(O)c(OC)c1 [Ethyl Vanillate] |  | 144.12
5 | CCOC(=O)c1cc2ccccc2oc1=O [Ethyl coumarin-3-carboxylate] | 141.92 | 
6 | CCOc1cc(C=O)ccc1O [Ethyl vanillin] |  | 133.69
7 | COc1cc([C@@H]2c3cc4c(cc3[C@@H](O[C@@H]3O[C@@H]5CO[C@@H](C)O[C@H]5[C@H](O)[C@H]3O)C3COC(=O)C32)OCO4)cc(OC)c1O (stereo partly drawn) [Etoposide] | 250.54 | 
8 | COc1ccc(C=CC(=O)c2c(O)cc(OC)cc2OC)cc1 [Flavokawain A] | 176.36 | 184.75
9 | O=C(O)c1ccccc1Nc1cccc(C(F)(F)F)c1 [Flufenamic acid] | 159.39 | 160.69
10 | Nc1[nH]c(=O)ncc1F [Fluorocytosine] | 119.97 | 
11 | Nc1ccn([C@@H]2O[C@H](CO)[C@@H](O)C2(F)F)c(=O)n1 [Gemcitabine] | 155.86 | 
12 | COC(=O)C1=CO[C@@H](O[C@@H]2O[C@H](CO)[C@@H](O)[C@H](O)[C@H]2O)[C@@H]2C(CO)=CC[C@H]12 [Geniposide] |  | 184.6
13 | O=C(O)C1=CO[C@@H](O[C@@H]2O[C@H](CO)[C@@H](O)[C@H](O)[C@H]2O)[C@@H]2C(CO)=CC[C@H]12 [Geniposidic acid] |  | 184.17
14 | O=c1c(-c2ccc(O)cc2)coc2cc(O[C@@H]3O[C@H](CO)[C@@H](O)[C@H](O)[C@H]3O)cc(O)c12 [Genistin] | 207.07 | 213.76
15 | COc1cc(O)c2c(=O)cc(-c3ccc(O)cc3)oc2c1 [Genkwanin] | 163.54 | 166.12
16 | CC(C)=C1C/C=C(\C)CC/C=C(\C)CC1=O [Germacrone] | 149.53 | 
17 | C=C1C[C@]23C[C@@]1(O)CC[C@H]2[C@@]12C=C[C@H](O)[C@@](C)(C(=O)O1)[C@H]2[C@@H]3C(=O)O [Gibberellic acid] |  | 177.69
18 | CCCCCCCCCCCCCCCc1cccc(O)c1C(=O)O [Ginkgolic<U+00A0>Acid<U+00A0>C15:0<U+00A0>] |  | 190.92
19 | CC(C)=CCC[C@](C)(O[C@@H]1O[C@H](CO)[C@@H](O)[C@H](O)[C@H]1O)[C@H]1CC[C@]2(C)[C@@H]1[C@H](O)C[C@@H]1[C@@]3(C)CC[C@H](O)C(C)(C)[C@@H]3CC[C@]12C [Ginsenoside Compound K] |  | 257.91

Row | SMILES | collision cross section (ion adduct: [M+H]+) [Å²] | collision cross section (ion adduct: [M-H]-) [Å²]
20 | CC(C)=CCC[C@](C)(O[C@@H]1O[C@H](CO)[C@@H](O)[C@H](O)[C@H]1O)[C@H]1CC[C@]2(C)[C@@H]1[C@H](O)C[C@@H]1[C@@]3(C)CC[C@H](O)C(C)(C)[C@@H]3[C@@H](O)C[C@]12C [Ginsenoside F1] |  | 259.18
21 | CC(C)=CCC[C@](C)(O)[C@H]1CC[C@]2(C)[C@@H]1[C@H](O)C[C@@H]1[C@@]3(C)CC[C@H](O)C(C)(C)[C@@H]3[C@@H](O[C@@H]3O[C@H](CO)[C@@H](O)[C@H](O)[C@H]3O)C[C@]12C [Ginsenoside Rh1] |  | 266.62
22 | CC1(C)CC[C@]2(C(=O)O[C@@H]3O[C@H](CO)[C@@H](O)[C@H](O)[C@H]3O)CC[C@]3(C)C(=CC[C@@H]4[C@@]5(C)CC[C@H](O[C@@H]6O[C@H](C(=O)O)[C@@H](O)[C@H](O)[C@H]6O[C@@H]6O[C@H](CO)[C@@H](O)[C@H](O)[C@H]6O)C(C)(C)[C@@H]5CC[C@]43C)[C@@H]2C1 [Ginsenoside Ro] |  | 310.46
23 | CC1(C)C=Cc2c(ccc3c2OC[C@@H](c2ccc(O)cc2O)C3)O1 [Glabridin] | 180.63 | 184.46
24 | CC1(C)[C@@H](O[C@H]2O[C@H](C(=O)O)[C@@H](O)[C@H](O)[C@H]2OC2O[C@H](C(=O)O)[C@@H](O)[C@H](O)[C@H]2O)CC[C@]2(C)[C@H]3C(=O)C=C4[C@@H]5C[C@@](C)(C(=O)O)CC[C@]5(C)CC[C@@]4(C)[C@]3(C)CC[C@@H]12 (stereo partly drawn) [Glycyrrhizic acid] | 287.67 | 281.13
25 | O=C1CCc2ccccc2O1 [Hydrocoumarin] |  | 127.47
26 | COc1ccc2c(c1)c(CC(=O)O)c(C)n2C(=O)c1ccc(Cl)cc1 [Indometacin] | 181.26 | 
27 | CC1=CC23C(=O)C(C=C(CO)C(O)C2(O)C1O)C1C(CC3C)C1(C)C (stereo not drawn) [Ingenol] |  | 184.41
28 | CC(C)NC(=O)N1CC(=O)N(c2cc(Cl)cc(Cl)c2)C1=O [Iprodione] | 180.27 | 
29 | CC=Cc1ccc(O)c(OC)c1 [Isoeugenol] |  | 138.02
30 | COc1ccc(-c2cc(=O)c3c(O)cc(O)c(-c4cc(-c5cc(=O)c6c(O)cc(O)cc6o5)ccc4OC)c3o2)cc1 [Isoginkgetin] | 231.51 | 230.78
31 | COc1ccc(CC2c3cc(Oc4cc(CC5c6cc(O)c(OC)cc6CCN5C)ccc4O)c(OC)cc3CCN2C)cc1 (stereo not drawn) [Isoliensinine] | 238.39 | 232.33
32 | COc1cc(C2Oc3ccc(C4Oc5cc(O)cc(O)c5C(=O)C4O)cc3OC2CO)ccc1O (stereo not drawn) [Isosilybin] | 214.42 | 
33 | C[C@@]12CCC3[C@@](CC[C@@H]4[C@](C)(C(=O)O)CCC[C@@]34C)(CC1=O)C2 (stereo partly drawn) [Isosteviol] | 180.22 | 180.18
34 | COC1=CC(=O)O[C@@H](/C=C/c2ccccc2)C1 [Kawain] | 150.52 | 
35 | C=CC(C)(C)c1cc(/C=C/C(=O)c2ccc(O)cc2)c(OC)cc1O [Licochalcone A] | 191.26 | 194.56
36 | COc1c(C=CC(=O)c2ccc(O)cc2)ccc(O)c1O [Licochalcone B] | 170.36 | 171.14
37 | O=C1C[C@@H](c2ccc(O)cc2)Oc2cc(O)ccc21 [Liquiritigenin] | 162 | 161.75
38 | O=c1cc(-c2ccc(O)c(O)c2)oc2cc(O[C@@H]3O[C@H](CO)[C@@H](O)[C@H](O)[C@H]3O)cc(O)c12 [Luteolin-7-O-glucoside] | 209.01 | 210.14

Row | SMILES | collision cross section (ion adduct: [M+H]+) [Å²] | collision cross section (ion adduct: [M-H]-) [Å²]
39 | OC[C@@H](O)[C@@H](O[C@H]1O[C@H](CO)[C@@H](O)[C@H](O)[C@H]1O)[C@H](O)[C@@H](O)CO [Maltitol] |  | 169.57
40 | Cc1cccc(Nc2ccccc2C(=O)O)c1C [Mefenamic acid] | 154.75 | 
41 | CNC[C@H](O)[C@@H](O)[C@H](O)[C@H](O)CO [Meglumine] | 141.05 | 139.8
42 | COC(=O)/C=C/c1ccc(O)cc1 [Methyl 4-hydroxycinnamate] |  | 139.5
43 | COC(=O)c1cc(OC)c(O)c(OC)c1 [Methyl syringate] |  | 146.35
44 | NC(=O)c1ncn([C@@H]2O[C@H](CO)[C@@H](O)[C@H]2O)c1O [Mizoribine] |  | 155.14
45 | C[C@@H]1O[C@@H](Oc2c(-c3cc(O)c(O)c(O)c3)oc3cc(O)cc(O)c3c2=O)[C@H](O)[C@H](O)[C@H]1O [Myricitrin] |  | 199.23
46 | COc1cc(C=CC(=O)NCCc2ccc(O)cc2)ccc1O [N-trans-Feruloyltyramine] | 181.28 | 176.36
47 | CC1CCC=C2C(=O)CC3OOC(C)(C)C3C21C (stereo not drawn) [Nardosinone] |  | 156.3
48 | COc1ccc(CC2c3cc(Oc4cc(CC5c6cc(OC)c(OC)cc6CCN5C)ccc4O)c(OC)cc3CCN2C)cc1 (stereo not drawn) [Neferine] | 242.9 | 252.96
49 | COc1ccc([C@@H]2CC(=O)c3c(O)cc(O[C@@H]4O[C@H](CO)[C@@H](O)[C@H](O)[C@H]4O[C@@H]4O[C@@H](C)[C@H](O)[C@@H](O)[C@H]4O)cc3O2)cc1O [Neohesperidin] |  | 229.5
50 | COc1ccc(CCC(=O)c2c(O)cc(O[C@@H]3O[C@H](CO)[C@@H](O)[C@H](O)[C@H]3O[C@@H]3O[C@@H](C)[C@H](O)[C@@H](O)[C@H]3O)cc2O)cc1O [Neosperidin dihydrochalcone] | 233.96 | 
51 | NC(=O)c1cccnc1 [Nicotinamide] | 125.25 | 
52 | CC(=O)OC5CC(=O)O[C@@](C)(C)[C@@H]6CC(=O)[C@]3(C)[C@H](CC[C@@]2(C)[C@@H](OC(=O)[C@H]1O[C@]123)c4ccoc4)[C@@]56C (stereo partly drawn) [Nomilin] | 217.15 | 219.9
53 | COc1cc2c3c(c1OC)-c1ccccc1C[C@H]3N(C)CC2 [Nuciferine] | 172.41 | 
54 | COc1c(O)c(C)cc2c1C(=O)c1c(O)cccc1C2=O [Obtusifolin] | 158.75 | 160.85
55 | C/C=C1/[C@H](O[C@@H]2O[C@H](CO)[C@@H](O)[C@H](O)[C@H]2O)OC=C(C(=O)OC)[C@H]1CC(=O)OCCc1ccc(O)c(O)c1 [Oleuropein] |  | 217.92
56 | O=C(Nc1ccc(O)cc1)c1ccccc1O [Osalmid] | 151.37 | 150.88
57 | CC1(C)CCC[C@](C)([C@H]2CC[C@]3(C)[C@@H]2[C@H](O)C[C@@H]2[C@@]4(C)CC[C@H](O)C(C)(C)[C@@H]4CC[C@]23C)O1 [Panaxadiol] | 218.82 | 
